Data: patent US20240246942A1, “KINASE INHIBITORS FOR THE TREATMENT OF NEURODEGENERATIVE DISEASES” (priority 2020, published 2024)

How the values were obtained:
[1] = Microsomal stability, human; format: in vitro ADME; conditions: human microsomes
[2] = tested on: JNK3-dependent phosphorylation of APP at T668; test: JNK3 inhibition assay in rat primary neuron cultures (Western blot, anisomycin activated); format: cell-based; conditions: even at a concentration as low as 10 nM; FIGS. 5A-5C
Experimental: Both hippocampal and cortical neurons were isolated from E18 rat embryos and cultured in NbActive 1 medium that contains B27 (Brainbits, LLC) plus penicillin/streptomycin (Life Technologies). At the 7th day in culture, cells were treated with different concentrations of inhibitors diluted in DMSO and 80 ng/ml Anisomycin for 30 min to activate the endogenous JNK3. At the end of incubation time, whole cell lysates were prepared in RIPA buffer containing 50 mM Tris (pH 8.0), 150 mM NaCl, 2 mM EDTA, 1% NP-40, 0.5% deoxycholate supplemented with 10 mM Na pyrophosphate, 1 mM sodium orthovanadate, 25 mM NaF, 10 μg/ml leupeptin, 10 μg/ml aprotinin, 1 mM β-glycerophosphate, and 2 mM PMSF. The lysates were subjected to Western blotting to detect whether inhibitors block JNK3-dependent phosphorylation of APP at T668 and c-jun at S73. Phospho-APP^T668, phosphor-c-jun^S73, APP, and c-jun antibodies were from Cell Signaling Technology.

[3] = Microsomal stability, mouse; format: in vitro ADME; conditions: mouse microsomes
CYP2D6 = CYP2D6 (Homo sapiens, UniProt P10635); test: P450 cocktail inhibition assay, CYP2D6; format: in vitro ADME; conditions: at 10 μM
Experimental: (§1) P450s inhibition for four major isoforms are evaluated using a cocktail inhibition assay where the metabolism of specific marker substrate (CYP1A2 phenaceten […] to acetaminophen); CYP2C9, tolbutamide hydroxylation to hydrocytolbutamide; CYP2D6, bufuralol hydroxylation to […]; and CYP3A4, midazolam hydroxylation to 1′-Hydroxymidazolam) in the presence or absence of 10 TM probe compound is evaluated. The concentration of each marker substrate is approximately its Km. […] Specific inhibitors for each isoform are included in each run to validate the system.

CYP1A2 = target: T1, CYP1A2 (Homo sapiens, UniProt P05177); test: P450 cocktail inhibition assay, CYP1A2; format: in vitro ADME; conditions: at 10 μM
T1 sequence (P05177 1-516): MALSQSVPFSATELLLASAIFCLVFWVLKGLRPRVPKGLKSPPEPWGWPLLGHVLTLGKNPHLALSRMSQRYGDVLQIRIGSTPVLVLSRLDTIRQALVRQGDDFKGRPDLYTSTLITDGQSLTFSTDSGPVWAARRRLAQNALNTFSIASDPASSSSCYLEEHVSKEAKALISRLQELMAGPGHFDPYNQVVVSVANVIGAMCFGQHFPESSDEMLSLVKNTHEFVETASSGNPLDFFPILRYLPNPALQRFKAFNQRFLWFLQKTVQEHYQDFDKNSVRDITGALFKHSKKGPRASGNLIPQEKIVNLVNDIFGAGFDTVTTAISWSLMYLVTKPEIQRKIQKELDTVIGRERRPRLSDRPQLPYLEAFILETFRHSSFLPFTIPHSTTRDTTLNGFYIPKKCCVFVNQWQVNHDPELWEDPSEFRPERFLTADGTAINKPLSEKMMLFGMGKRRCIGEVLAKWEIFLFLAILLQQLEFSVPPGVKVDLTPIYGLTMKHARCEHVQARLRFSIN
Experimental: as §1

CYP2C9 = CYP2C9 (Homo sapiens, UniProt P11712); test: P450 cocktail inhibition assay, CYP2C9; format: in vitro ADME; conditions: at 10 μM
Experimental: as §1

SHSY5Y cells = test: MTT cytotoxicity assay; format: cell-based; set-up: dose or concentration left out as unconfirmed; conditions: 48 hrs, average of ≥2 experiments;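 also: compounds tested at 10 µM final concentration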
Experimental: A day before the assay, cells were plated at 50,000/well in 96 well plates in the culture medium. […] After the incubation, cells were subjected to MTT assay using Vybrant MTT Cell Proliferation kit as directed by the vendor (Life Technologies).

CYP3A4 = CYP3A4 (Homo sapiens, UniProt P08684); test: P450 cocktail inhibition assay, CYP3A4; format: in vitro ADME; conditions: at 10 μM
Experimental: as §1

JNK1 = JNK1 (Homo sapiens, UniProt P45983); test: JNK1 homogeneous time-resolved fluorescence enzyme inhibition assay; format: biochemical; conditions: for R: ratio of IC50 values of JNK1 over JNK3: isoform selectivity against JNK1; for IC50: mean of ≥2 experiments, read-out: Biochemical inhibition IC50 JNK1
Experimental: (§2) A 10-point titration of all compounds was carried out in 3-fold dilutions from 10 μM to 0.5 nM.

p38α = p38α (Homo sapiens, UniProt Q16539); test: p38 enzyme inhibition assay; conditions: mean of ≥2 experiments; read-out: Biochemical inhibition IC50 p38α
JNK2 = JNK2 (Homo sapiens, UniProt P45984); test: JNK2 homogeneous time-resolved fluorescence enzyme inhibition assay; format: biochemical; conditions: for R: ratio of IC50 values of JNK2 over JNK3: isoform selectivity against JNK2; for IC50: mean of ≥2 experiments, read-out: Biochemical inhibition IC50 JNK2
Experimental: as §2

JNK3α1 = JNK3α1 (Homo sapiens, UniProt P53779); format: biochemical; conditions: for IC50: mean of ≥2 experiments, read-out: Biochemical inhibition IC50 JNK3
Experimental: as §2

Sequence of JNK1 (P45983 whole entry, canonical isoform): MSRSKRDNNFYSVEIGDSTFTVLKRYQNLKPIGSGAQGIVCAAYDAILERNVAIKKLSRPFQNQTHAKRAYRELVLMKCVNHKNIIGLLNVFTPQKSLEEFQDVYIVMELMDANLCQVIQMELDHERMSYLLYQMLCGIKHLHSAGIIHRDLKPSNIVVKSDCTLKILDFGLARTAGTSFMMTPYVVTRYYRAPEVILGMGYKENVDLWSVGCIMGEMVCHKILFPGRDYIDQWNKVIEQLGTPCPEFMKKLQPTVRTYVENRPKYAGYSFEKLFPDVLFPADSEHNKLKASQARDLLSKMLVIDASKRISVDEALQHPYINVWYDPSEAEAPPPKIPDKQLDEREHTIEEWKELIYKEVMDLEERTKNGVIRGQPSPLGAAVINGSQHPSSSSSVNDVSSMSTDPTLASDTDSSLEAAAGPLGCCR
Sequence of p38α (Q16539 whole entry, canonical isoform): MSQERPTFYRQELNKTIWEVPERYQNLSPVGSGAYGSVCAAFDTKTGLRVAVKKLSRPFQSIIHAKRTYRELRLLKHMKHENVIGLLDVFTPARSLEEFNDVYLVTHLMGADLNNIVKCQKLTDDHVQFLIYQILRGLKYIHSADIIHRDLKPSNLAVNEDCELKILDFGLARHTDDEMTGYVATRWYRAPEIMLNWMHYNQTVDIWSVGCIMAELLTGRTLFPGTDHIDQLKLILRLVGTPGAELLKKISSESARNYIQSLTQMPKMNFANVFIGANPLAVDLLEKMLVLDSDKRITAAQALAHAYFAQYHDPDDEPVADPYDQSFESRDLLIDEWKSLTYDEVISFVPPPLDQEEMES
Sequence of JNK2 (P45984 whole entry, canonical isoform): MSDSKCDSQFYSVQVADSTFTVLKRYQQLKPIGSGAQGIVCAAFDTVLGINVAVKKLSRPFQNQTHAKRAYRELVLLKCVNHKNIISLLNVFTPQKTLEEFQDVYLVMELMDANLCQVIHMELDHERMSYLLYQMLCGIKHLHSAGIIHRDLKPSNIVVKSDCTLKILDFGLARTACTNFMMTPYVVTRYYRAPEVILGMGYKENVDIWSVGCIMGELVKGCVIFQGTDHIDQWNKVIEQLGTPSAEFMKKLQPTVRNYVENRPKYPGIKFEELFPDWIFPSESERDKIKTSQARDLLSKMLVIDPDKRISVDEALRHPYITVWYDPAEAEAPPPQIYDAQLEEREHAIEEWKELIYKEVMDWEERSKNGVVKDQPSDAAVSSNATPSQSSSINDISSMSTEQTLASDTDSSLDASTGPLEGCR
Sequence of CYP2D6 (P10635 whole entry, canonical isoform): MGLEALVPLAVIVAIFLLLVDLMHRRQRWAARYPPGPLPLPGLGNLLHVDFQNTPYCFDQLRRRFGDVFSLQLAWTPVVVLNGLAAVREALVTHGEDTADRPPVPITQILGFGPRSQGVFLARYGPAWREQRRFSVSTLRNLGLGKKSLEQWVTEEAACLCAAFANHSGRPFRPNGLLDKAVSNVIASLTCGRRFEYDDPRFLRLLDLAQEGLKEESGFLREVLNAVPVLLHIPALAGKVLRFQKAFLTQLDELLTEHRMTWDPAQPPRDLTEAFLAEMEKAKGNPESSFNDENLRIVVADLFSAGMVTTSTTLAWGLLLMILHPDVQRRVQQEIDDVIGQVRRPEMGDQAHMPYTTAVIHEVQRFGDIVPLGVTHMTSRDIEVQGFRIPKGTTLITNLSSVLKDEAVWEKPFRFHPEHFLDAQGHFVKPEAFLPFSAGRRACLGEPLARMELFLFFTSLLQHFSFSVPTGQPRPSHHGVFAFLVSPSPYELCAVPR
Sequence of CYP2C9 (P11712 whole entry): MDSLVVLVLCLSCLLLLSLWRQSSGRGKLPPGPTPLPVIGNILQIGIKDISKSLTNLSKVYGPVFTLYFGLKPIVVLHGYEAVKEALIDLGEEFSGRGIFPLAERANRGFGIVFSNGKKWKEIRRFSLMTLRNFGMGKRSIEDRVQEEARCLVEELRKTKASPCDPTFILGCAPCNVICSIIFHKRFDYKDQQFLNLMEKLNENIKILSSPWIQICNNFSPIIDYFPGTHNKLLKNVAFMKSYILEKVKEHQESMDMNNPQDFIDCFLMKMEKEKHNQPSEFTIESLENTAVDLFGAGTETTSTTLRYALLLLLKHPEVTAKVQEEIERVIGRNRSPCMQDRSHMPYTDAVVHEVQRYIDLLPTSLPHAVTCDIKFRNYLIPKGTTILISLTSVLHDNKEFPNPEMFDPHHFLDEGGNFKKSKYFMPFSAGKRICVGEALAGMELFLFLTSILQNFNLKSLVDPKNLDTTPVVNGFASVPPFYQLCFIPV
Sequence of JNK3α1 (P53779 1-422 isoform P53779-2): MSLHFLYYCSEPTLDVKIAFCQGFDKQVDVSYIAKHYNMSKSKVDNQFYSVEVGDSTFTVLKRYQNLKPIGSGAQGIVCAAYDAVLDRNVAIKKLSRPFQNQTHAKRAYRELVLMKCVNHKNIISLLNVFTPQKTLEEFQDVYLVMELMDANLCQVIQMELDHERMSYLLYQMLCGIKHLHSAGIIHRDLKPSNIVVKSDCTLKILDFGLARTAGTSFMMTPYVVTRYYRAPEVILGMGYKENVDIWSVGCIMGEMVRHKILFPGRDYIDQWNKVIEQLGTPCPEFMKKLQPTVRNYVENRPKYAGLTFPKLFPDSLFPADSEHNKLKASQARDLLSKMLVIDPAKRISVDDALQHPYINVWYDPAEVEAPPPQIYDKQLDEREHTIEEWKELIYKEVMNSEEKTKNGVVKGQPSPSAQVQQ
Sequence of CYP3A4 (P08684 whole entry): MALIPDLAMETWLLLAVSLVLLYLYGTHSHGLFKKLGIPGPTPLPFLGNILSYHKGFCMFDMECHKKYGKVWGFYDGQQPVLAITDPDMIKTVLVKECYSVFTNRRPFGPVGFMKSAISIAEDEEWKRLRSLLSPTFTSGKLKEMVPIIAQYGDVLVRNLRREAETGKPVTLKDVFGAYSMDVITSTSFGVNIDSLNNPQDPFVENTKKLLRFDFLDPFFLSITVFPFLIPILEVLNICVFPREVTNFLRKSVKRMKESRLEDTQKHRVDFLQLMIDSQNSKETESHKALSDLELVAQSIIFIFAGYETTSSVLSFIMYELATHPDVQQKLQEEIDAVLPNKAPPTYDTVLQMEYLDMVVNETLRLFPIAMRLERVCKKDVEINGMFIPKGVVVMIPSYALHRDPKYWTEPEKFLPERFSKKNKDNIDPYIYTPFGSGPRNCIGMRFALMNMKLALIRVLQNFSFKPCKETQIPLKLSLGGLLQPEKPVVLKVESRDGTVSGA

reduction in JNK3 inhibitions (JNK3α1; compared to 16)	SMILES	Mic. stability t1/2 Human [1]	inhibition of phosphorylation of residue T668 of APP [2]	Mic. stability t1/2 Mouse [3]	CYP-450 % inh. 2D6 (CYP2D6)	CYP-450 % inh. 1A2 (CYP1A2)	CYP-450 % inh. 2C9 (CYP2C9)	MTT cell viability (SHSY5Y cells)	CYP-450 % inh. 3A4 (CYP3A4)	R: ratio of IC50 values of JNK1 over JNK3 (JNK1)	IC50 (JNK1)	IC50 (p38α)	R: ratio of IC50 values of JNK2 over JNK3 (JNK2)	IC50 (JNK2)	IC50 (JNK3α1)	isoform selectivity against JNK2 vs JNK3 (JNK2)
	O=C(Nc1cnn(-c2csc(C(=O)NC3COC3)c2)c1)Nc1ccc(F)cc1Cl [Compound 26, 4-(4-(3-(2-chloro-4-fluorophenyl)ureido)-1H-pyrazol-1-yl)-N-(oxetan-3-yl)thiophene-2-carboxamide]	>120 min	significantly inhibited	68 min	30%	38%	47%	104%	−5%							
	O=C(Nc1cnn(-c2csc(C(=O)NC3CCOCC3)c2)c1)Nc1ccccc1Cl [Compound 15, 4-(4-(3-(2-chlorophenyl)ureido)-1H-pyrazol-1-yl)-N-(tetrahydro-2H-pyran-4-yl)thiophene-2-carboxamide]	32 min		16 min	0%	32%	7%	97%	−35%	38	1900 nM	> 20000 nM	21	1050 nM	50 nM	
7 fold	Cc1sc(C(=O)N[C@@H]2CCOC2)cc1-n1cc(NC(=O)Nc2c(F)cccc2Cl)cn1 [Compound 28, (R)-4-(4-(3-(2-chloro-6-fluorophenyl)ureido)-1H-pyrazol-1-yl)-5-methyl-N-(tetrahydrofuran-3-yl)thiophene-2-carboxamide]	40 min	significantly inhibited	38 min	17%	34%	35%	114%	26%							
	O=C(Nc1cnn(-c2csc(C(=O)NCC3CCOCC3)c2)c1)Nc1ccccc1Cl [Compound 24, 4-(4-(3-(2-chlorophenyl)ureido)-1H-pyrazol-1-yl)-N-((tetrahydro-2H-pyran-4-yl)methyl)thiophene-2-carboxamide]	8 min		15 min	32%	36%	64%	95%	21%	63	1500 nM	> 20000 nM	34	810 nM	24 nM	
	O=C(Nc1cnn(-c2csc(C(=O)NC3CC3)c2)c1)Nc1ccccc1Cl [Compound 8, 4-(4-(3-(2-chlorophenyl)ureido)-1H-pyrazol-1-yl)-N-cyclopropylthiophene-2-carboxamide]	49 min		35 min	−29%	−2%	−4%	103%	−45%	93	7400 nM	> 20000 nM	40	3200 nM	80 nM	around 40 folds
